From US20090005345A1, “Detoxification of Shellfish” (priority 2005, published 2009)

Test system: bivalves
Experiment: Feed test: detoxification of DSP-toxin containing bivalves by feeding in land-based vessels, DSP by HPLC
Assay type: in vivo
Details: Test 5; additive given separately in addition to bioprotein; 7.2° C.
Source text: Seawater from a depth of 45 metres in the Eidfjord, with a salinity of 33-34 per mille, was pumped up into a reservoir on land. The water was then passed into the test vessels. The bivalves were evenly distributed on the mesh/grating in a layer of about 10 cm in thickness. The vessel diameter is about 70 cm. In these small scale tests importance was given to ensuring that oxygen should not be a limiting factor. That is to say that there is sufficient flow-through of water to obtain approximate oxygen saturation in the outflow. The amount of water through each vessel was about 8 litres per minute.
Feeding was effected automatically batchwise throughout the day. That is to say that the daily consumption of the feed slurry according to Example 1 was filled into a tank once a day. The slurry runs from this tank to the bivalve vessel cascade via a valve. In our tests we chose to feed batchwise once an hour. Such portion feeding is important in order to obtain an even distribution to the whole bivalve population. The feed was added in the course of a few seconds. […]
In the case of all the tests, samples were taken immediately prior to the test start and after given time periods. […] The samples were analysed at the Norwegian College of Veterinary Medicine using HPLC (High Performance Liquid Chromatography).
The half-life for DSP was calculated using the following formula: […]

O=C1O[C@H]([C@@H](O)CO)C(O)=C1O [Vitamin C]
Effect on DSP half-life of additive used in addition to bioprotein: no effect
